Assay results: US4245106A, “Process for the preparation of 1-alkyl-3-aryl-4-pyrazolecarboxylates” (Monsanto Company, priority 1979, dated 1981)

What was measured:
Assay type in all cases: in vivo
[1] = tested on: Canada Thistle; assay: post-emergent herbicidal activity test
Procedure: (§1) The post-emergent tests were conducted as follows. The active ingredients are applied in spray form to two or three-week old specimens of various plant species. The spray, a solution or wettable powder suspension containing the appropriate rate of active ingredient to give the desired test rate and a surfactant, is applied to the plants. The treated plants are placed in a greenhouse and unless otherwise noted approximately four weeks later the effects are observed and recorded.

[2] = tested on: Smartweed; assay: post-emergent herbicidal activity test
Procedure: as §1

[3] = tested on: Cocklebur; assay: post-emergent herbicidal activity test
Procedure: as §1

[4] = tested on: Morningglory; assay: post-emergent herbicidal activity test
Procedure: as §1

[5] = tested on: Barnyard grass; assay: post-emergent herbicidal activity test
Procedure: as §1

[6] = tested on: Nutsedge; assay: post-emergent herbicidal activity test
Procedure: as §1

[7] = tested on: Quackgrass; assay: post-emergent herbicidal activity test
Procedure: as §1

[8] = tested on: Johnsongrass; assay: post-emergent herbicidal activity test
Procedure: as §1

[9] = tested on: Velvetleaf; assay: post-emergent herbicidal activity test
Procedure: as §1

[10] = tested on: Bromus tectorum; assay: post-emergent herbicidal activity test
Procedure: as §1

[11] = tested on: Lambsquarter; assay: post-emergent herbicidal activity test
Procedure: as §1

[12] = tested on: Canada Thistle; assay: pre-emergent herbicidal activity test
Procedure: (§2) Table II summarizes results of tests conducted to determine the pre-emergent as well as the post-emergent herbicidal activity of the compounds. The pre-emergent test was conducted as follows:
(§3) A good grade of top soil was placed in aluminum pans and compacted to a depth of three-eighths to one-half inch from the top of the pan. On the top of the soil was placed a predetermined number of seeds or vegetative propagules of various plant species. The soil required to level fill the pans after seeding or adding vegetative propagules was weighed into a pan. A known amount of the active ingredient applied in a solvent or as a wettable powder and the soil were thoroughly mixed, and used as a cover layer for prepared pans. After treatment the pans were moved into a greenhouse bench where they were watered from below as needed to give adequate moisture for germination and growth.
(§4) A herbicial rating code was used to signify the extent of phytotoxicity of each species. The rating are defined as follows: […]

[13] = tested on: Smartweed; assay: pre-emergent herbicidal activity test
Procedure: as §2, §3, §4

[14] = tested on: Cocklebur; assay: pre-emergent herbicidal activity test
Procedure: as §2, §3, §4

[15] = tested on: Morningglory; assay: pre-emergent herbicidal activity test
Procedure: as §2, §3, §4

[16] = tested on: Barnyard grass; assay: pre-emergent herbicidal activity test
Procedure: as §2, §3, §4

[17] = tested on: Nutsedge; assay: pre-emergent herbicidal activity test
Procedure: as §2, §3, §4

[18] = tested on: Quackgrass; assay: pre-emergent herbicidal activity test
Procedure: as §2, §3, §4

[19] = tested on: Johnsongrass; assay: pre-emergent herbicidal activity test
Procedure: as §2, §3, §4

[20] = tested on: Velvetleaf; assay: pre-emergent herbicidal activity test
Procedure: as §2, §3, §4

[21] = tested on: Bromus tectorum; assay: pre-emergent herbicidal activity test
Procedure: as §2, §3, §4

[22] = tested on: Lambsquarter; assay: pre-emergent herbicidal activity test
Procedure: as §2, §3, §4

[23] = 11.2 Kg/Ha, approximately four weeks later
[24] = *11.2 Kg/Ha, observed approximately 14 days after treatment
[25] = 11.2 Kg/Ha, approximately 28 days after seeding and treating
Further: ranges in brackets are in %.

Structure (SMILES): CCOC(=O)c1cn(CC)nc1-c1cccc(C(F)(F)F)c1 [Example 1]
- Post-Emergent herbicidal rating, A Canada Thistle [1, 23]: 1 (25-49)
- Post-Emergent herbicidal rating, A Canada Thistle [1, 24]: 1 (25-49)
- Post-Emergent herbicidal rating, F Smartweed [2, 23]: 0 (0-24)
- Post-Emergent herbicidal rating, F Smartweed [2, 24]: 1 (25-49)
- Post-Emergent herbicidal rating, B Cocklebur [3, 23]: 1 (25-49)
- Post-Emergent herbicidal rating, B Cocklebur [3, 24]: 1 (25-49)
- Post-Emergent herbicidal rating, D Morningglory [4, 23]: 1 (25-49)
- Post-Emergent herbicidal rating, D Morningglory [4, 24]: 1 (25-49)
- Post-Emergent herbicidal rating, K Barnyard grass [5, 23]: 0 (0-24)
- Post-Emergent herbicidal rating, K Barnyard grass [5, 24]: 1 (25-49)
- Post-Emergent herbicidal rating, G Nutsedge [6, 23]: 0 (0-24)
- Post-Emergent herbicidal rating, G Nutsedge [6, 24]: 1 (25-49)
- Post-Emergent herbicidal rating, H Quackgrass [7, 23]: 0 (0-24)
- Post-Emergent herbicidal rating, H Quackgrass [7, 24]: 1 (25-49)
- Post-Emergent herbicidal rating, I Johnsongrass [8, 23]: 0 (0-24)
- Post-Emergent herbicidal rating, I Johnsongrass [8, 24]: 1 (25-49)
- Post-Emergent herbicidal rating, C Velvetleaf [9, 23]: 1 (25-49)
- Post-Emergent herbicidal rating, C Velvetleaf [9, 24]: 1 (25-49)
- Post-Emergent herbicidal rating, J Bromus tectorum [10, 23]: 0 (0-24)
- Post-Emergent herbicidal rating, J Bromus tectorum [10, 24]: 1 (25-49)
- Post-Emergent herbicidal rating, E Lambsquarter [11, 23]: 1 (25-49)
- Post-Emergent herbicidal rating, E Lambsquarter [11, 24]: 1 (25-49)
- Pre-Emergent herbicidal rating, A Canada Thistle [12, 25]: 1 (25-49)
- Pre-Emergent herbicidal rating, A Canada Thistle [12, 24]: 1 (25-49)
- Pre-Emergent herbicidal rating, F Smartweed [13, 25]: 1 (25-49)
- Pre-Emergent herbicidal rating, F Smartweed [13, 24]: 3 (75-100)
- Pre-Emergent herbicidal rating, B Cocklebur [14, 25]: 0 (0-24)
- Pre-Emergent herbicidal rating, B Cocklebur [14, 24]: 1 (25-49)
- Pre-Emergent herbicidal rating, D Morningglory [15, 25]: 0 (0-24)
- Pre-Emergent herbicidal rating, D Morningglory [15, 24]: 2 (50-74)
- Pre-Emergent herbicidal rating, K Barnyard grass [16, 25]: 3 (75-100)
- Pre-Emergent herbicidal rating, K Barnyard grass [16, 24]: 3 (75-100)
- Pre-Emergent herbicidal rating, G Nutsedge [17, 25]: 0 (0-24)
- Pre-Emergent herbicidal rating, G Nutsedge [17, 24]: 0 (0-24)
- Pre-Emergent herbicidal rating, H Quackgrass [18, 25]: 0 (0-24)
- Pre-Emergent herbicidal rating, H Quackgrass [18, 24]: 1 (25-49)
- Pre-Emergent herbicidal rating, I Johnsongrass [19, 25]: 0 (0-24)
- Pre-Emergent herbicidal rating, I Johnsongrass [19, 24]: 0 (0-24)
- Pre-Emergent herbicidal rating, C Velvetleaf [20, 25]: 3 (75-100)
- Pre-Emergent herbicidal rating, C Velvetleaf [20, 24]: 3 (75-100)
- Pre-Emergent herbicidal rating, J Bromus tectorum [21, 25]: 1 (25-49)
- Pre-Emergent herbicidal rating, J Bromus tectorum [21, 24]: 2 (50-74)
- Pre-Emergent herbicidal rating, E Lambsquarter [22, 25]: 3 (75-100)
- Pre-Emergent herbicidal rating, E Lambsquarter [22, 24]: 3 (75-100)

Structure (SMILES): CCOC(=O)c1cn(C)nc1-c1cc(C(F)(F)F)cc(C(F)(F)F)c1 [Example 10]
- Post-Emergent herbicidal rating, A Canada Thistle [1, 23]: 1 (25-49)
- Post-Emergent herbicidal rating, A Canada Thistle [1, 24]: 2 (50-74)
- Post-Emergent herbicidal rating, F Smartweed [2, 23]: 0 (0-24)
- Post-Emergent herbicidal rating, F Smartweed [2, 24]: 1 (25-49)
- Post-Emergent herbicidal rating, B Cocklebur [3, 23]: 2 (50-74)
- Post-Emergent herbicidal rating, B Cocklebur [3, 24]: 2 (50-74)
- Post-Emergent herbicidal rating, D Morningglory [4, 23]: 2 (50-74)
- Post-Emergent herbicidal rating, D Morningglory [4, 24]: 2 (50-74)
- Post-Emergent herbicidal rating, K Barnyard grass [5, 23]: 1 (25-49)
- Post-Emergent herbicidal rating, K Barnyard grass [5, 24]: 0 (0-24)
- Post-Emergent herbicidal rating, G Nutsedge [6, 23]: 0 (0-24)
- Post-Emergent herbicidal rating, G Nutsedge [6, 24]: 0 (0-24)
- Post-Emergent herbicidal rating, H Quackgrass [7, 23]: 0 (0-24)
- Post-Emergent herbicidal rating, H Quackgrass [7, 24]: 0 (0-24)
- Post-Emergent herbicidal rating, I Johnsongrass [8, 23]: 0 (0-24)
- Post-Emergent herbicidal rating, I Johnsongrass [8, 24]: 0 (0-24)
- Post-Emergent herbicidal rating, C Velvetleaf [9, 23]: 0 (0-24)
- Post-Emergent herbicidal rating, C Velvetleaf [9, 24]: 1 (25-49)
- Post-Emergent herbicidal rating, J Bromus tectorum [10, 23]: 0 (0-24)
- Post-Emergent herbicidal rating, J Bromus tectorum [10, 24]: 0 (0-24)
- Post-Emergent herbicidal rating, E Lambsquarter [11, 23]: 2 (50-74)
- Post-Emergent herbicidal rating, E Lambsquarter [11, 24]: 1 (25-49)
- Pre-Emergent herbicidal rating, A Canada Thistle [12, 25]: 0 (0-24)
- Pre-Emergent herbicidal rating, A Canada Thistle [12, 24]: 1 (25-49)
- Pre-Emergent herbicidal rating, F Smartweed [13, 25]: 0 (0-24)
- Pre-Emergent herbicidal rating, F Smartweed [13, 24]: 1 (25-49)
- Pre-Emergent herbicidal rating, B Cocklebur [14, 25]: 0 (0-24)
- Pre-Emergent herbicidal rating, B Cocklebur [14, 24]: 0 (0-24)
- Pre-Emergent herbicidal rating, D Morningglory [15, 25]: 0 (0-24)
- Pre-Emergent herbicidal rating, D Morningglory [15, 24]: 1 (25-49)
- Pre-Emergent herbicidal rating, K Barnyard grass [16, 25]: 2 (50-74)
- Pre-Emergent herbicidal rating, K Barnyard grass [16, 24]: 3 (75-100)
- Pre-Emergent herbicidal rating, G Nutsedge [17, 25]: 0 (0-24)
- Pre-Emergent herbicidal rating, G Nutsedge [17, 24]: 0 (0-24)
- Pre-Emergent herbicidal rating, H Quackgrass [18, 25]: 0 (0-24)
- Pre-Emergent herbicidal rating, H Quackgrass [18, 24]: 0 (0-24)
- Pre-Emergent herbicidal rating, I Johnsongrass [19, 25]: 0 (0-24)
- Pre-Emergent herbicidal rating, I Johnsongrass [19, 24]: 0 (0-24)
- Pre-Emergent herbicidal rating, C Velvetleaf [20, 25]: 0 (0-24)
- Pre-Emergent herbicidal rating, C Velvetleaf [20, 24]: 1 (25-49)
- Pre-Emergent herbicidal rating, J Bromus tectorum [21, 25]: 1 (25-49)
- Pre-Emergent herbicidal rating, J Bromus tectorum [21, 24]: 1 (25-49)
- Pre-Emergent herbicidal rating, E Lambsquarter [22, 25]: 3 (75-100)
- Pre-Emergent herbicidal rating, E Lambsquarter [22, 24]: 3 (75-100)
